Source: the supplement of paper PMC6045584
± gives the standard deviation of the averaged measurements.

Columns and labels:
SNX-5422 = compound: CC1(C)CC(=O)c2c(C(F)(F)F)nn(-c3ccc(C(N)=O)c(N[C@H]4CC[C@H](OC(=O)CN)CC4)c3)c2C1 [SNX-5422]; assay: surviving fraction relative to DMSO-only wells; higher = less growth inhibition; conditions: exposure time: 5 days
Summary of the method: (§1)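 Tumour cell lines were seeded in log phase at 250–500 cells per well into 384-well plates. Starting 24 hours later, inhibitors were present continuously for five days at 0.5, 1, 5, 10, 50, 100, 500 and 1000 nM. Surviving fraction, from CellTiter-Glo luminescence, is normalised to the median of DMSO-only wells. Three screens per line were required, with replicate Pearson r >0.7 and median Z' >0.3 for a line to be kept.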

MDV3100 = compound: CNC(=O)c1ccc(N2C(=S)N(c3ccc(C#N)c(C(F)(F)F)c3)C(=O)C2(C)C)cc1F [MDV3100]; assay: as above; conditions: exposure time: 5 days
Summary of the method: as §1

Row | Test System | surviving fraction (SNX-5422; 0.5 nM) | surviving fraction (SNX-5422; 1 nM) | surviving fraction (SNX-5422; 5 nM) | surviving fraction (SNX-5422; 10 nM) | surviving fraction (SNX-5422; 50 nM) | surviving fraction (SNX-5422; 100 nM) | surviving fraction (SNX-5422; 500 nM) | surviving fraction (SNX-5422; 1000 nM) | surviving fraction (MDV3100; 0.5 nM) | surviving fraction (MDV3100; 1 nM) | surviving fraction (MDV3100; 5 nM) | surviving fraction (MDV3100; 10 nM) | surviving fraction (MDV3100; 50 nM) | surviving fraction (MDV3100; 100 nM) | surviving fraction (MDV3100; 500 nM) | surviving fraction (MDV3100; 1000 nM)
1 | MDAMB436 BREAST | 0.91 ± 0.056 | 0.873 ± 0.066 | 0.892 ± 0.044 | 0.903 ± 0.12 | 0.471 ± 0.016 | 0.305 ± 0.0098 | 0.316 ± 0.013 | 0.326 ± 0.011 | 0.965 ± 0.086 | 0.884 ± 0.076 | 0.9783 ± 0.0076 | 0.95 ± 0.024 | 0.999 ± 0.1 | 0.9082 ± 0.0022 | 0.925 ± 0.083 | 0.86 ± 0.036
2 | SJSA1 BONE | 1.06 ± 0.041 | 1.02 ± 0.051 | 1.12 ± 0.088 | 1.14 ± 0.034 | 0.484 ± 0.03 | 0.177 ± 0.0095 | 0.0583 ± 0.0035 | 0.0523 ± 0.0015 | 0.471 ± 0.053 | 1.27 ± 0.084 | 1.43 ± 0.11 | 0.332 ± 0.037 | 0.0403 ± 0.0031 | 1.49 ± 0.034 | 0.0293 ± 0.0025 | 1.49 ± 0.023
3 | MG63 BONE | 1.04 ± 0.035 | 1.03 ± 0.047 | 1.09 ± 0.037 | 1.11 ± 0.053 | 0.496 ± 0.026 | 0.351 ± 0.029 | 0.13 ± 0.0085 | 0.136 ± 0.013 | 0.988 ± 0.0044 | 0.953 ± 0.026 | 1.01 ± 0.015 | 0.999 ± 0.028 | 1.02 ± 0.013 | 1.02 ± 0.019 | 0.968 ± 0.03 | 0.931 ± 0.011
4 | HCC70 BREAST | 1.07 ± 0.05 | 1.142 ± 0.0055 | 1.19 ± 0.043 | 1.17 ± 0.048 | 0.668 ± 0.11 | 0.133 ± 0.023 | 0.127 ± 0.021 | 0.113 ± 0.016 | 0.994 ± 0.021 | 0.955 ± 0.052 | 0.992 ± 0.085 | 0.963 ± 0.16 | 1.06 ± 0.082 | 0.979 ± 0.051 | 0.975 ± 0.076 | 0.88 ± 0.058
5 | MDAMB361 BREAST | 0.884 ± 0.064 | 0.974 ± 0.14 | 0.76 ± 0.043 | 0.816 ± 0.037 | 0.443 ± 0.025 | 0.879 ± 0.2 | 0.307 ± 0.0076 | 0.294 ± 0.015 | 0.907 ± 0.073 | 0.81 ± 0.075 | 0.935 ± 0.068 | 0.874 ± 0.074 | 0.831 ± 0.14 | 0.806 ± 0.074 | 0.921 ± 0.085 | 0.831 ± 0.077
6 | SG32 HEADNECK | 1.35 ± 0.39 | 1.17 ± 0.21 | 1.08 ± 0.18 | 1.29 ± 0.14 | 0.257 ± 0.035 | 0.14 ± 0.011 | 0.0353 ± 0.0084 | 0.0353 ± 0.004 | 1.21 ± 0.56 | 0.976 ± 0.13 | 0.988 ± 0.033 | 0.794 ± 0.073 | 1.16 ± 0.17 | 1 ± 0.3 | 1.01 ± 0.044 | 1.09 ± 0.26
7 | SKBR3 BREAST | 0.866 ± 0.051 | 0.932 ± 0.25 | 0.93 ± 0.068 | 0.841 ± 0.051 | 0.439 ± 0.024 | 0.432 ± 0.035 | 0.192 ± 0.01 | 0.181 ± 0.002 | 1.02 ± 0.093 | 1.09 ± 0.12 | 1.11 ± 0.069 | 1.1 ± 0.17 | 1 ± 0.11 | 1.052 ± 0.0065 | 0.971 ± 0.046 | 1.09 ± 0.18
8 | HT1080 SOFT TISSUE | 1.02 ± 0.016 | 1.03 ± 0.0021 | 1.062 ± 0.0015 | 1.155 ± 0.01 | 0.414 ± 0.034 | 0.238 ± 0.011 | 0.121 ± 0.007 | 0.12 ± 0.01 | 1.052 ± 0.0076 | 1.07 ± 0.03 | 1.063 ± 0.008 | 1.05 ± 0.016 | 1.02 ± 0.018 | 1.04 ± 0.045 | 0.999 ± 0.015 | 0.994 ± 0.027
9 | SG27 HEADNECK | 1.04 ± 0.13 | 1.06 ± 0.13 | 1 ± 0.14 | 1.06 ± 0.079 | 1.68 ± 0.3 | 1.26 ± 0.088 | 0.071 ± 0.017 | 0.0733 ± 0.046 | 1.064 ± 0.0067 | 1.01 ± 0.12 | 1.07 ± 0.13 | 0.935 ± 0.091 | 1.09 ± 0.04 | 1.19 ± 0.081 | 1.21 ± 0.2 | 1.17 ± 0.19
10 | 143B BONE | 1 ± 0.056 | 0.985 ± 0.0099 | 1.02 ± 0.037 | 0.996 ± 0.0057 | 0.365 ± 0.016 | 0.149 ± 0.0028 | 0.087 ± 0.0071 | 0.091 ± 0.011 | 1.07 ± 0.061 | 1.1 ± 0.1 | 1.09 ± 0.086 | 1.09 ± 0.088 | 1.13 ± 0.12 | 1.13 ± 0.11 | 1.11 ± 0.11 | 1.1 ± 0.093
11 | CME SYNOVIAL | 1.05 ± 0.06 | 1.21 ± 0.062 | 1.23 ± 0.074 | 1.35 ± 0.077 | 1.01 ± 0.18 | 0.276 ± 0.0067 | 0.287 ± 0.011 | 0.365 ± 0.034 | 1.2 ± 0.075 | 0.852 ± 0.11 | 1.09 ± 0.089 | 0.18 ± 0.044 | 1.22 ± 0.053 | 1.09 ± 0.13 | 1.16 ± 0.1 | 0.451 ± 0.068
12 | T47D BREAST | 1.08 ± 0.018 | 1.06 ± 0.018 | 1.08 ± 0.035 | 1.06 ± 0.019 | 0.492 ± 0.033 | 0.512 ± 0.016 | 0.31 ± 0.0074 | 0.288 ± 0.0079 | 0.9561 ± 0.0072 | 0.988 ± 0.044 | 0.983 ± 0.021 | 0.894 ± 0.035 | 1.1 ± 0.015 | 1.02 ± 0.036 | 1.03 ± 0.047 | 0.999 ± 0.041
13 | SUM149 BREAST | 0.982 ± 0.046 | 0.986 ± 0.14 | 1.09 ± 0.1 | 0.951 ± 0.097 | 0.0727 ± 0.0076 | 0.082 ± 0.0095 | 0.0233 ± 0.0021 | 0.0287 ± 0.0015 | 1.03 ± 0.047 | 0.922 ± 0.087 | 0.897 ± 0.038 | 0.36 ± 0.043 | 1.07 ± 0.095 | 0.951 ± 0.021 | 1.01 ± 0.092 | 0.546 ± 0.013
14 | HELA CERVIX | 1.08 ± 0.049 | 1.1 ± 0.031 | 1.09 ± 0.071 | 1.03 ± 0.028 | 1.2 ± 0.016 | 0.672 ± 0.081 | 0.228 ± 0.028 | 0.113 ± 0.016 | 0.931 ± 0.035 | 0.923 ± 0.0096 | 0.929 ± 0.023 | 0.888 ± 0.036 | 0.999 ± 0.034 | 1.02 ± 0.065 | 1.08 ± 0.069 | 1.03 ± 0.047
15 | MHM BONE | 1.01 ± 0.018 | 1.04 ± 0.015 | 1.04 ± 0.023 | 1.06 ± 0.013 | 1.02 ± 0.015 | 0.635 ± 0.047 | 0.186 ± 0.0096 | 0.149 ± 0.0076 | 1 ± 0.039 | 1 ± 0.054 | 1.01 ± 0.025 | 1.01 ± 0.039 | 1.02 ± 0.02 | 1.01 ± 0.029 | 0.973 ± 0.012 | 0.952 ± 0.0046
16 | BT549 BREAST | 1.1 ± 0.22 | 0.861 ± 0.11 | 1.19 ± 0.077 | 1.05 ± 0.11 | 0.216 ± 0.02 | 0.187 ± 0.059 | 0.0503 ± 0.011 | 0.0473 ± 0.0074 | 0.957 ± 0.078 | 1.02 ± 0.089 | 1 ± 0.11 | 0.939 ± 0.0099 | 1.01 ± 0.036 | 0.996 ± 0.099 | 0.992 ± 0.076 | 0.98 ± 0.057
17 | U2OS BONE | 1.04 ± 0.019 | 1.06 ± 0.04 | 1.08 ± 0.015 | 1.06 ± 0.041 | 0.644 ± 0.018 | 0.257 ± 0.021 | 0.066 ± 0.0035 | 0.0757 ± 0.0023 | 1.003 ± 0.0095 | 1.02 ± 0.022 | 1.01 ± 0.027 | 1.01 ± 0.018 | 1.04 ± 0.026 | 1.03 ± 0.018 | 1.06 ± 0.033 | 0.999 ± 0.047
18 | COLO320DM LARGE INTESTINE | 1.11 ± 0.05 | 1.25 ± 0.046 | 1.24 ± 0.27 | 1.13 ± 0.12 | 0.581 ± 0.029 | 0.309 ± 0.035 | 0.113 ± 0.0058 | 0.103 ± 0.009 | 1.18 ± 0.14 | 0.995 ± 0.087 | 1.13 ± 0.022 | 0.533 ± 0.021 | 1.13 ± 0.086 | 1.042 ± 0.0052 | 1.12 ± 0.057 | 0.754 ± 0.052
19 | 22RV1 PROSTATE | 1.06 ± 0.047 | 1.11 ± 0.056 | 1.06 ± 0.037 | 0.941 ± 0.056 | 0.169 ± 0.018 | 0.13 ± 0.022 | 0.0763 ± 0.014 | 0.0823 ± 0.0091 | 0.953 ± 0.067 | 0.954 ± 0.061 | 0.997 ± 0.051 | 0.938 ± 0.066 | 0.934 ± 0.12 | 0.968 ± 0.04 | 0.862 ± 0.21 | 0.781 ± 0.27
20 | SG28 HEADNECK | 1.05 ± 0.11 | 1.12 ± 0.019 | 1 ± 0.076 | 1 ± 0.071 | 0.598 ± 0.042 | 0.299 ± 0.023 | 0.117 ± 0.019 | 0.125 ± 0.015 | 1.19 ± 0.035 | 1.06 ± 0.0078 | 1.02 ± 0.086 | 0.762 ± 0.034 | 0.949 ± 0.062 | 1.01 ± 0.06 | 1.11 ± 0.067 | 0.946 ± 0.13
21 | OS25HAL BONE | 0.9827 ± 0.0029 | 1.004 ± 0.0087 | 1.03 ± 0.019 | 0.998 ± 0.036 | 0.789 ± 0.12 | 0.257 ± 0.031 | 0.13 ± 0.018 | 0.132 ± 0.023 | 0.968 ± 0.03 | 0.932 ± 0.015 | 0.962 ± 0.018 | 0.959 ± 0.011 | 1.06 ± 0.013 | 1.06 ± 0.03 | 1.04 ± 0.026 | 1.01 ± 0.057
